Results reported in US20230286956A1 (DUKSUNG WOMEN'S UNIVERSITY INDUSTRY-ACADEMIC COOPERATION …, priority 2020, published 2023).

Columns and labels:
alpha-synuclein = test: Alpha-synuclein aggregation (phosphorylation) inhibition, Western blotting; assay type: cell-based; conditions: SH-SY5Y, 10 µM compound then rotenone
Protocol: When rotenone is administered to nerve cells, phosphorylation, namely aggregation of alpha-synuclein occurs. Phosphorylation, aggregation of alpha-synuclein can be observed and quantified through Western blotting.
Specifically, the SH-SY5Y cell line was treated with Compound 1aaa (Compound 1, 10 µM) and then with rotenone. Thereafter, Western blotting was performed to measure the expression levels of alpha-synuclein and phosphorylated alpha-synuclein, and the results are illustrated in FIG. 6.

Nrf-2 = Nrf-2 induction, nuclear fraction Western blotting; assay type: cell-based; conditions: SH-SY5Y, 10 µM compound for 24 hours
Protocol: When oxidative stress caused by reactive oxygen species increases in cells, the synthesis of antioxidants increases in response to this. One of the transcription factors mediating this antioxidant response is Nrf-2. As the transcription factor Nrf-2 enters the nucleus and the expression of genes related to antioxidation increases, the antioxidant capacity of cells increases.
Specifically, the SH-SY5Y cell line was exposed to Compound 1aaa (Compound 1, 10 µM) for 24 hours and then the cells were taken. Thereafter, the nuclear fraction was extracted, then Western blotting was performed to analyze the amount of Nrf-2 in the nucleus, and the results are illustrated in FIG. 7.

SH-SY5Y cell line [1] = test: Inhibition of reactive oxygen species generation (CM-H2DCFDA) after MPP+ or rotenone; assay type: cell-based; conditions: 10 µM compound, then MPP+ (2 mM) or rotenone (2 µM) for 24 hours
Protocol: It is known that reactive oxygen species are generated by inhibition of mitochondria, activation of NOX enzyme, and the like when MPP+ or rotenone is administered to a cell line. Since the reactive oxygen species generated at this time react with the CM-H2DCFDA reagent to be fluorescent, the reactive oxygen species can be indirectly quantified.
Specifically, the SH-SY5Y cell line was treated with Compound 1aaa (Compound 1, 10 µM), apocynin (5 µM), or allopurinol (50 µM), and then with MPP+ (2 mM) or rotenone (2 µM) for 24 hours. The effect of each compound to inhibit the generation of reactive oxygen species is illustrated in FIGS. 2 and 3 as a relative percentage to that of the control group.

SH-SY5Y cell line [2] = test: Cell viability (MTT assay) after MPP+ or rotenone; assay type: cell-based; conditions: 0.5 µM compound, then MPP+ (2 mM) or rotenone (2 µM) for 24 hours
Protocol: Specifically, the SH-SY5Y cell line was treated with 0.5 µM of Compound 1aaa (Compound 1), 1aca (Compound 24), lace (Compound 27), 1ahe (Compound 44) or 1aje (Compound 62) and then with MPP+ (2 mM) or rotenone (2 µM) for 24 hours. Cell viability in the case of being treated with each compound is illustrated in FIGS. 4 and 5.

[3] = Single acute toxicity evaluation 1 (1000 mg/kg oral); assay type: in vivo, ICR mice
Protocol: Acute toxicity properties after single administration of the compound of the present invention were evaluated in an animal model.

CN1C(=[Se])N(c2ccccc2)C(=O)C1=Cc1ccc(O)cc1O [Compound 1aaa]
phosphorylation of alpha-synuclein by rotenone (alpha-synuclein): significantly reduced | amount of Nrf-2 in the nucleus, increase (Nrf-2): about 1.5 times | inhibition of increased generation of reactive oxygen species (SH-SY5Y cell line [1]): effectively inhibits | cell viability / inhibition of cell death (SH-SY5Y cell line [2]): significantly inhibit cell death | autopsy report findings [3]: no specific findings | organ weight [3]: no change in organ weight | change in body weight ([3]; day 0): 100 | change in body weight ([3]; day 1): 98.06 | change in body weight ([3]; day 2): 101.29 | change in body weight ([3]; day 3): 104.85 | change in body weight ([3]; day 5): 106.47 | change in body weight ([3]; day 7): 109.39 | acute toxicity phenomenon ([3]; observed for 1 week): a specific acute toxicity phenomenon was not observed
